From PMC7412453, “SAR:s for the Antiparasitic Plant Metabolite Pulchrol. 1. The Benzyl Alcohol Functionality” (Molecules, 2020)
Like-named read-outs stand apart in the source and are kept apart here.

What was measured:
T. cruzi epimastigotes = assay: Trypanocidal activity against T. cruzi epimastigotes (XTT); assay type: cell-based, Trypanosoma cruzi; settings: for IC50: Trypanosoma cruzi, read-out: T. cruzi IC50; for selectivity ratio at 72 h: mouse (RAW 264.7 cells) / Trypanosoma cruzi (epimastigotes), RAW cell IC50 / T. cruzi IC50, read-out: T. cruzi SI (selectivity index, cytotoxicity/anti-protozoal activity)
Description: Trypanocidal activity was determined according to Muelas-Serrano with some modifications. […] Benznidazol (3.1–100 μg/mL) was used as the control drug. Assays were performed in triplicates.

[1] = test system: L. brasiliensis promastigotes; assay: Leishmanicidal activity against L. brasiliensis promastigotes (XTT); settings: for IC50: 72 h, read-out: L. brasiliensis IC50
Description: (§1) Evaluations against Leishmania parasites: Promastigotes of Leishmania-Leishmania: L. amazonensis, Clone 1, NHOM-BR-76-LTB-012 (Lma, donated by the Paul Sabatier Université, France) and Leishmania-Viannia: L. braziliensis M2904 C192 RJA (M2904, donated by Dr. Jorge Arévalo from Universidad Peruana Cayetano Heredia, Peru). All strains were cultured in Schneider’s insect medium, (pH 6.2) supplemented with 10% FBS and incubated at 26 °C. Medium changes were made every 72 h to maintain a viable parasitic population. Leishmanicidal activity was determined according to Williams with some modifications. Samples were dissolved in DMSO (maximum final concentration 1%) at 10 mg/mL. Promastigotes in logarithmic phase of growth, at the concentration 3 × 10^6 parasites/mL, were distributed (100 μL/well) in 96-well flat bottom microtiter plates. Samples with different concentrations (3.1–100 μg/mL) were added (100 μL). […] Assays were performed in triplicates. The microwell plates were incubated for 72 h at 26 °C. After incubation, a solution of XTT (1 mg/mL) in PBS (pH 7.0 at 37 °C) with PMS (0.06 mg/mL) was added (50 μL/well), and incubated for 3 h at 26 °C. The optical density of each well was measured and the IC50 values calculated.

[2] = test system: L. amazoniensis promastigotes; assay: Leishmanicidal activity against L. amazoniensis promastigotes (XTT); settings: for IC50: Leishmania amazonensis, 72 h, read-out: L. amazoniensis IC50
Description: as §1, with “All” for “Evaluations against Leishmania parasites: Promastigotes of Leishmania-Leishmania: L. amazonensis, Clone 1, NHOM-BR-76-LTB-012 (Lma, donated by the Paul Sabatier Université, France) and Leishmania-Viannia: L. braziliensis M2904 C192 RJA (M2904, donated by Dr. Jorge Arévalo from Universidad Peruana Cayetano Heredia, Peru). All”

[3] = Cytotoxicity in RAW cells (Resazurin); assay type: cell-based, murine; settings: mouse
Description: Evaluations against RAW cells: The Raw 264.7 murine macrophage cell line was purchased from the American Type Culture Collection (ATCC-TIB71). The cells were maintained in DMEM-HG medium supplemented with 10% fetal bovine serum, 100 U/mL of penicillin and 100 μg/mL of streptomycin, and sodium bicarbonate (2.2 g/L) in humidified atmosphere at 37 °C with 5% CO2. Samples were prepared as described above and added (in 100 μL DMSO) at different concentrations (6.2–200 μg/mL). Medium blank, control drugs and cell growth controls were included to evaluate cell viability. The plates were incubated for 72 h at 37 °C with 5% CO2. After incubation for the indicated time, the cells were washed, after which 10 μL of Resazurin reagent (2.0 mM) was added. They were further incubated at 37 °C for 3 h in a humidified incubator. The IC50 values were assessed using a fluorometric reader (540 nm excitation, 590 nm emission) and the Gen5 software. All assays were performed in triplicate.

[4] = epimastigotes, 72 h at 26 °C, XTT, triplicates
[5] = L. brasiliensis SI (selectivity index, cytotoxicity/anti-protozoal activity), RAW cell IC50 / L. brasiliensis IC50
[6] = L. amazoniensis SI (selectivity index, cytotoxicity/anti-protozoal activity), RAW cell IC50 / L. amazoniensis IC50
[7] = RAW cells, 72 h at 37 °C, Resazurin, triplicate, read-out: Cytotoxicity IC50

Structure (SMILES)	IC50 (T. cruzi epimastigotes; [4]) [µM]	selectivity ratio at 72 h (T. cruzi epimastigotes)	selectivity ratio at 72 h [1]	IC50 [1] [µM]	selectivity ratio at 72 h [2]	IC50 [2] [µM]	IC50 at 72 h [3] [µM]	selectivity ratio at 72 h [1, 5]	selectivity ratio at 72 h [2, 6]	IC50 at 72 h [3, 7] [µM]	IC50 (T. cruzi epimastigotes; 72 h) [µM]	IC50 at 72 h ([3]; RAW 264.7 macrophage cells (ATCC-TIB71), RAW cells, 72 h at 37 °C, Resazurin, triplicate, read-out: Cytotoxicity IC50) [µM]
COc1ccc2c(c1)-c1cc(C)ccc1C(C)(C)O2 [3a, 2-Methoxy-6,6,9-trimethyl-6H-benzo[c]chromene]	51.1 ± 17.7	2	1.4	69.6 ± 5.9	1.2	85.3 ± 5.9	99.5 ± 22					
COc1ccc2c(c1)-c1cc(CCl)ccc1C(C)(C)O2 [3b, 9-(chloromethyl)-2-methoxy-6,6-dimethyl-6H-benzo[c]chromene]	38.1 ± 0.4	1.6		17.1 ± 0.1		35 ± 2.8	59.2 ± 14.5	3.5	1.7			
COCc1ccc2c(c1)-c1cc(OC)ccc1OC2(C)C [3c, 2-Methoxy-9-(methoxymethyl)-6,6-dimethyl-6H-benzo[c]chromene]	24.6 ± 3.5	1.3		49.2 ± 15.8		56.3 ± 12	33.1 ± 2.1	0.7	0.6			
COc1ccc2c(c1)-c1cc(COC(C)C)ccc1C(C)(C)O2 [3d, 9-(Isopropoxymethyl)-2-methoxy-6,6-dimethyl-6H-benzo[c]chromene]	12.9 ± 0.3	2.5	0.9	35.2 ± 3.2	0.9	35.2 ± 3.8				32 ± 0.3		
COc1ccc2c(c1)-c1cc(CNC(C)C)ccc1C(C)(C)O2 [3f, N-((2-Methoxy-6,6-dimethyl-6H-benzo[c]chromen-9-yl)methyl)propan-2-amine]	70.6 ± 9.6	0.4		83.5 ± 32.1		67.8 ± 13.8	29.5 ± 9.6	0.4	0.4			
COc1ccc2c(c1)-c1cc(CNCC(C)C)ccc1C(C)(C)O2 [3g, N-((2-Methoxy-6,6-dimethyl-6H-benzo[c]chromen-9-yl)methyl)-2-methylpropan-1-amine]	15.4 ± 4	0.8		25.8 ± 6.2		15.4 ± 3.1	12.3 ± 1.2	0.5	0.8			
COc1ccc2c(c1)-c1cc(CNCCC(C)C)ccc1C(C)(C)O2 [3h, N-((2-Methoxy-6,6-dimethyl-6H-benzo[c]chromen-9-yl)methyl)-3-methylbutan-1-amine]	5.9 ± 1.2	1.3		15.9 ± 0.9		17.7 ± 7.4	7.4 ± 2.4	0.5	0.4			
COc1ccc2c(c1)-c1cc(COC(C)=O)ccc1C(C)(C)O2 [4a, (2-Methoxy-6,6-dimethyl-6H-benzo[c]chromen-9-yl)methyl acetate]	14.4 ± 1.6	2.3		28.8 ± 0.3		26.9 ± 0.6	32.7 ± 22.4	1.1	1.2			
COc1ccc2c(c1)-c1cc(COC(=O)C(C)C)ccc1C(C)(C)O2 [4b, (2-Methoxy-6,6-dimethyl-6H-benzo[c]chromen-9-yl)methyl isobutyrate]	8.8 ± 0.9	3		17.6 ± 0.9		26.7 ± 2.4	26.4 ± 5.9	1.5	1			
COc1ccc2c(c1)-c1cc(COC(=O)C(C)(C)C)ccc1C(C)(C)O2 [4c, (2-Methoxy-6,6-dimethyl-6H-benzo[c]chromen-9-yl)methyl pivalate]	6.4 ± 0.1	3	1.1	17.4 ± 1.7	1	20.5 ± 0.6				19.8 ± 0.9		
CCCC(=O)OCc1ccc2c(c1)-c1cc(OC)ccc1OC2(C)C [4d, (2-Methoxy-6,6-dimethyl-6H-benzo[c]chromen-9-yl)methyl butyrate]	16.2 ± 3.2	6.4		57.8 ± 2.4		79.3 ± 9.4	103 ± 35.3	1.8	1.3			
COc1ccc2c(c1)-c1cc(COC(=O)CC(C)C)ccc1C(C)(C)O2 [4e, (2-Methoxy-6,6-dimethyl-6H-benzo[c]chromen-9-yl)methyl 3-methylbutanoate]	4.2 ± 1.1	6.7		13.1 ± 0.4		14.5 ± 0.1	28.2 ± 9	2.2	1.9			
COc1ccc2c(c1)-c1cc(COC(=O)CC(C)(C)C)ccc1C(C)(C)O2 [4f, (2-Methoxy-6,6-dimethyl-6H-benzo[c]chromen-9-yl)methyl 3,3-dimethylbutanoate]	5.7 ± 0.3	3.3		20 ± 4.2		19.5 ± 0.8	19 ± 3	1	1			
CCCCCC(=O)OCc1ccc2c(c1)-c1cc(OC)ccc1OC2(C)C [4g, (2-Methoxy-6,6-dimethyl-6H-benzo[c]chromen-9-yl)methyl hexanoate]	22.8 ± 5.7	2.3	1.9	27.7 ± 0.3	1.2	42.3 ± 8.7				52.1 ± 8.1		
COc1ccc2c(c1)-c1cc(COC(=O)CCC3CCCC3)ccc1C(C)(C)O2 [4h, (2-Methoxy-6,6-dimethyl-6H-benzo[c]chromen-9-yl)methyl 3-cyclopentylpropanoate]	8.4 ± 3.3	6.1	0.4	122 ± 27.9	1.6	30.9 ± 3	50.7 ± 17.7					
COc1ccc2c(c1)-c1cc(COC(=O)C3CCCCC3)ccc1C(C)(C)O2 [4i, (2-Methoxy-6,6-dimethyl-6H-benzo[c]chromen-9-yl)methyl cyclohexanecarboxylate]	13.1 ± 0.5	3.9	2.1	24.3 ± 0.8	1.3	40.5 ± 8.7	51.3 ± 8.2					
C=CC(=O)OCc1ccc2c(c1)-c1cc(OC)ccc1OC2(C)C [4j, (2-Methoxy-6,6-dimethyl-6H-benzo[c]chromen-9-yl)methyl acrylate]	7.4 ± 0.9	> 5		5.7 ± 0.5		6.9 ± 1.7	40.1 ± 12.6	> 5	> 5			
O=C(Cn1ccnc1[N+](=O)[O-])NCc1ccccc1 [Benznidazole, reference compound]		3.9								74.7 ± 9.1	19.2 ± 7.7	
CCCCCCCCCCCCCCCCOP(=O)([O-])OCC[N+](C)(C)C [Miltefosine, reference compound]				13 ± 1.2								76.6 ± 3.2
